The values below come from US5254569A, “(Amidomethyl)nitrogen heterocyclic analgesics” (The Du Pont Merck Pharmaceutical Company, priority 1991, dated 1993).

The target in one data set is mu opioid receptor. The experiment in a line: opioid receptor binding, mu ([3H]naloxone). On the set-up: species or system guinea pig (method, b1124); rat (Table 4 title).
Data set [1] in a line: phenylquinone writhing test (PQW), analgesic activity in mice. Format: in vivo, male white mice (CFl). The following applies: for ED50: Mus musculus.
Another data set concerns the target T1, kappa opioid receptor (Cavia porcellus, UniProt P41144).
T1 construct: Whole brains were homogenized (20 sec) in 10 vol (wt/vol) of ice-cold 0.34 M sucrose; tissue Charles River (animals); host or cells: guinea pig whole-brain membranes
Description: opioid receptor binding, kappa ((-)-[3H]ethylketocycloazocine). On the set-up: species or system guinea pig (method, b1124); rat (Table 4 title).

The conditions of data set [2]: mouse, in vivo; cited from earlier work.
Where [3] appears, read: 0.5 nM [3H]naloxone, brain membranes, apparent Ki.

Counter-ions that a name gives are not always drawn. Like-named read-outs stand apart in the source and are kept apart here.

T1 sequence (P41144 whole entry): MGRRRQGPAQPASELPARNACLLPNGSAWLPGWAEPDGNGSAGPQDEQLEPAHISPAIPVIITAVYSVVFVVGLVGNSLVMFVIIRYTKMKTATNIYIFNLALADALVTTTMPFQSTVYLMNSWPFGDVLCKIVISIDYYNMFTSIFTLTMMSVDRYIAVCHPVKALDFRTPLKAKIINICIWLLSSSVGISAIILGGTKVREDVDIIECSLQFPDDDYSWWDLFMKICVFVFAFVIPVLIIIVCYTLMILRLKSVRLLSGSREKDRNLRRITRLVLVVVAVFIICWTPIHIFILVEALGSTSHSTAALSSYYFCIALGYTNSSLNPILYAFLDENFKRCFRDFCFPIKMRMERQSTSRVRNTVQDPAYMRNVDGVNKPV

As usually defined, the ED50 is the dose that gives a 50% effect, or the effect in half of the subjects. Low values mean an effect at a small dose, high ones a need for a large dose. Regarding `CN1CCCCC1C(c1ccccc1)N(C)C(=O)Cc1ccc(Cl)c(Cl)c1` (stereo not shown) [Example 2, benzeneacetamide, 3,4-dichloro-N-methyl-N-[1-(1-methyl-2-piperidinyl)phenyl-methyl], hydrochloride], on mu opioid receptor (hydrochloride), the Ki is 0.27 µM. This molecule yielded an ED50 in data set [1] (po) of 10 mg/kg. Moreover, the “MOUSE PQW ED50” value in data set [1] (s.c., hydrochloride) stood at 1.7 mg/kg.

As for `CN(C(=O)Cc1ccc(Cl)c(Cl)c1)C(c1ccccc1)C1CCCCN1CC1CC1` (stereo not shown) [Example 3], the Ki on mu opioid receptor (setting [3]) amounted to 0.957 µM; at kappa opioid receptor, 0.53 µM. Besides, the 50% effective dose (ED50) in data set [1] (po) was 47 mg/kg; in data set [1] (sc), more than 81 mg/kg.

As to `CC(C1CCCCN1C)N(C)C(=O)Cc1ccc(Cl)c(Cl)c1` (stereo not shown) [Example 4, benzeneacetamide,3,4-dichloro-N-methyl-N-[1-(1-methyl-2-piperidinyl)ethyl]-, hydrochloride], the values for the Ki on mu opioid receptor (setting [3]) and on kappa opioid receptor were 28.5 µM and 1.28 µM, respectively. Besides, the results for the ED50 in data set [1] (po) and in data set [1] (sc) were more than 81 mg/kg and 67 mg/kg, respectively.

Turning to `COc1cccc(C(C2CCCCN2C)N(C)C(=O)Cc2ccc(Cl)c(Cl)c2)c1` (stereo not shown) [Example 5, benzeneacetamide,3,4-dichloro-N-[1-(3-methoxyphenyl)-1-(1-methyl-2-piperidinyl)methyl]-N-methyl-, hydrochloride], the Ki on mu opioid receptor worked out at 3.47 µM. The ED50 in data set [1] (po) stood at 38 mg/kg; in data set [1] (sc), 1.3 mg/kg.

Turning to `CN1CCCCC1C(c1cccc(O)c1)N(C)C(=O)Cc1ccc(Cl)c(Cl)c1` (stereo not shown) [Example 6, benzeneacetamide,3,4-dichloro-N-[1-(3-hydroxyphenyl)-1-(1-methyl-2-piperidinyl)methyl]-N-methyl-, hydrobromide], the Ki on mu opioid receptor amounted to 0.438 µM. Further, the ED50 in data set [1] (po) was more than 81 mg/kg; in data set [1] (sc), 18 mg/kg.

Turning to `COc1ccc(C(C2CCCCN2C)N(C)C(=O)Cc2ccc(Cl)c(Cl)c2)cc1` (stereo not shown) [Example 7, Benzeneacetamide, 3,4-dichloro-N-((1-(4-methoxyphenyl)-1-(1-methyl-2-piperidinylmethyl))-N-methyl-, hydrochloride], the values for the Ki at mu opioid receptor (setting [3]) and at kappa opioid receptor were 5.67 µM and 4.59 µM, respectively. The ED50 in data set [1] (po) and in data set [1] (sc) was more than 81 mg/kg each time.

With `CN1CCCCC1C(c1ccc(O)cc1)N(C)C(=O)Cc1ccc(Cl)c(Cl)c1` (stereo not shown) [Example 8], the Ki was 11.4 µM on mu opioid receptor (setting [3]) and 2.59 µM at kappa opioid receptor. The ED50 in data set [1] (po) and in data set [1] (sc) was more than 81 mg/kg each time.

In turn, `CN1CCCCC1C(c1ccccc1)N(C)C(=O)Cc1ccc(Cl)c(Cl)c1` (stereo not shown) [Example 9] displayed a Ki on mu opioid receptor of 0.322 µM. Further, the “MOUSE PQW ED50” value in data set [1] (p.o.) came to 16. mg/kg; in data set [1] (s.c.), 0.72 mg/kg.

`CN1CCCCC1C(c1ccccc1)N(C)C(=O)Cc1c(F)c(F)c(F)c(F)c1F` (stereo not shown) [Example 10]: on mu opioid receptor, the Ki is 3.2 µM. Besides, the ED50 was 47 mg/kg in data set [1] (po) and 16 mg/kg in data set [1] (sc).

In the case of `CCN(C(=O)Cc1ccc(Cl)c(Cl)c1)C(c1ccccc1)C1CCCCN1C` (stereo not shown) [Example 11], the Ki at mu opioid receptor was found to be 0.66 µM. In data set [1] (po), this molecule came in with an ED50 of 38 mg/kg. Further, the “MOUSE PQW ED50” value in data set [1] (s.c.) turned out to be 30.0 mg/kg.

Regarding `CCN(C(=O)Cc1ccc(Cl)c(Cl)c1)C(c1ccccc1)C1CCCCN1C` (stereo not shown) [Example 12], the Ki on mu opioid receptor was 3.33 µM. In addition, the entries for the “MOUSE PQW ED50” value in data set [1] (p.o.) and in data set [1] (s.c.) were 24. mg/kg and 1.7 mg/kg, respectively.

`CN1CCCCC1C(c1ccccc1)N(C)C(=O)Cc1ccc(Cl)cc1Cl` (stereo not shown) [Example 13] showed a Ki on mu opioid receptor of 0.625 µM. The values for the ED50 in data set [1] (po) and in data set [1] (sc) were 24 mg/kg and 8.1 mg/kg, respectively.

In the case of `CN1CCCCC1C(c1ccccc1)N(C)C(=O)COc1ccc(Cl)c(Cl)c1` (stereo not shown) [Example 14], the Ki at mu opioid receptor (setting [3]) amounted to 0.058 µM. In addition, the ED50 is 1.2 mg/kg in data set [1] (po) and 0.11 mg/kg in data set [1] (sc).

For the molecule `CN1CCCCC1C(Cc1ccccc1)N(C)C(=O)Cc1ccc(Cl)c(Cl)c1` (stereo not shown) [Example 47], the Ki came out at 2.56 µM on mu opioid receptor (setting [3]) and 3.99 µM on kappa opioid receptor. Also, the ED50 in data set [1] (po) and in data set [1] (sc) was more than 81 mg/kg each time.

The molecule `CN1CCCC[C@H]1[C@H](c1ccccc1)N(C)C(=O)Cc1ccc(Cl)c(Cl)c1` [Example 106, (+)-[2S-(R*,R*)]-(3,4-dichlorophenyl)-N-methyl-N-[1-(1-methyl-2-piperidinyl)phenylmethyl]acetamide hydrochloride] yielded a Ki on mu opioid receptor of 0.414 µM. Besides, the ED50 in data set [1] (po) stood at 8.1 mg/kg; in data set [1] (sc) it was 0.37 mg/kg.

For the molecule `CN1CCCC[C@@H]1[C@@H](c1ccccc1)N(C)C(=O)Cc1ccc(Cl)c(Cl)c1` [Example 107], the Ki at mu opioid receptor was determined as 0.253 µM. Further, the ED50 in data set [1] (po) was found to be 30 mg/kg; in data set [1] (sc) it was 13 mg/kg.

At mu opioid receptor, `CN1CCCC[C@H]1[C@@H](c1ccccc1)N(C)C(=O)Cc1ccc(Cl)c(Cl)c1` [Example 109] had a Ki of 3.86 µM. For the same molecule, the ED50 in data set [1] (po) and in data set [1] (sc) was more than 81 mg/kg throughout.

On to `CN1CCCC[C@H]1[C@H](c1ccccc1)N(C)C(=O)COc1ccc(Cl)c(Cl)c1` [Example 110], for which the Ki at mu opioid receptor (setting [3]) is 0.008 µM. The ED50 in data set [1] (po) turned out to be 0.89 mg/kg; in data set [1] (sc) it was 0.078 mg/kg.

In turn, `CN1CCCC[C@@H]1[C@@H](c1ccccc1)N(C)C(=O)COc1ccc(Cl)c(Cl)c1` [Example 111] had a Ki on mu opioid receptor of 0.195 µM. Moreover, the ED50 in data set [1] (po) worked out at 19 mg/kg; in data set [1] (sc), 1.3 mg/kg.

In the case of `CN1CCCC[C@@H]1[C@H](c1ccccc1)N(C)C(=O)COc1ccc(Cl)c(Cl)c1` [Example 112], on mu opioid receptor, the Ki worked out at 4.62 µM. In addition, the ED50 in data set [1] (po) was more than 81 mg/kg; in data set [1] (sc), 12 mg/kg.

With `CN1CCCC[C@H]1[C@@H](c1ccccc1)N(C)C(=O)COc1ccc(Cl)c(Cl)c1` [Example 113], the Ki at mu opioid receptor is more than 10 µM. For the same molecule, the 50% effective dose (ED50) in data set [1] (po) is more than 81 mg/kg; in data set [1] (sc), 67 mg/kg.

On mu opioid receptor, `CN1CCCC[C@H]1[C@H](c1ccccc1)N(C)C(=O)Cc1cccc2occc12` [Example 114] returned a Ki of 0.25 µM. Moreover, the figures for the median effective dose (ED50) in data set [1] (po) and in data set [1] (sc) were 8.1 mg/kg and 0.57 mg/kg, respectively.

`CN1CCCC[C@H]1[C@H](c1ccc(F)cc1)N(C)C(=O)Cc1ccc(Cl)c(Cl)c1` [Example 118] displayed a Ki on mu opioid receptor of 1.06 µM. In addition, the 50% effective dose (ED50) in data set [1] (po) amounted to 19 mg/kg; in data set [1] (sc) it was 1.7 mg/kg.

With `COc1cccc([C@@H]([C@@H]2CCCCN2C)N(C)C(=O)Cc2ccc(Cl)c(Cl)c2)c1` [Example 120], the Ki at mu opioid receptor was determined as 0.633 µM. Further, the ED50 in data set [1] (po) was determined as 19 mg/kg; in data set [1] (sc), 1.6 mg/kg.

As to `CN1CCCC[C@H]1[C@H](c1cccc(O)c1)N(C)C(=O)Cc1ccc(Cl)c(Cl)c1` [Example 122], the Ki at mu opioid receptor came to 0.209 µM. Also, the figures for the ED50 in data set [1] (po) and in data set [1] (sc) were 47 mg/kg and 36 mg/kg, respectively.

Consider `CN1CCCC[C@H]1[C@H](c1ccc(F)cc1)N(C)C(=O)COc1ccc(Cl)c(Cl)c1` [Example 136], for which, at mu opioid receptor (setting [3]), the Ki was determined as 0.054 µM. The ED50 in data set [1] (po) is 1.7 mg/kg; in data set [1] (sc), 0.24 mg/kg.

Turning to `COc1cccc([C@@H]([C@@H]2CCCCN2C)N(C)C(=O)COc2ccc(Cl)c(Cl)c2)c1` [Example 140], on mu opioid receptor, the Ki worked out at 0.104 µM. In addition, the ED50 in data set [1] (po) worked out at 5.2 mg/kg; in data set [1] (sc) it was 0.29 mg/kg.

`CN1CCCC[C@H]1[C@H](c1cccc(O)c1)N(C)C(=O)COc1ccc(Cl)c(Cl)c1` [Example 144]: the Ki at mu opioid receptor (setting [3]) came to 0.027 µM. Besides, the ED50 in data set [1] (po) was 16 mg/kg; in data set [1] (sc) it was 4.2 mg/kg.

As for `CN(C(=O)Cc1ccc(Cl)c(Cl)c1)[C@@H](c1ccccc1)[C@@H]1CCCCN1CC1CC1` [Example 179], the Ki at mu opioid receptor (setting [3]) worked out at 0.604 µM; on kappa opioid receptor it was 0.397 µM. Moreover, the median effective dose (ED50) was 10 mg/kg in data set [1] (po) and more than 81 mg/kg in data set [1] (sc).

For the molecule `C=CCN1CCCC[C@H]1[C@H](c1ccccc1)N(C)C(=O)Cc1ccc(Cl)c(Cl)c1` [Example 180], the Ki at mu opioid receptor was found to be 0.53 µM. The results for the ED50 in data set [1] (po) and in data set [1] (sc) were 24 mg/kg and more than 81 mg/kg, respectively.

For `CN1CC[C@]23c4c5ccc(O)c4O[C@H]2[C@@H](O)C=C[C@H]3[C@H]1C5` [Morphine], the sedation in mice result in data set [2] is listed as “do not produce sedation”.
